Test results: PMC5507300, “Antibacterial small molecules targeting the conserved TOPRIM domain of DNA gyrase” (PLoS ONE, 2017)
≈ marks a conversion by molar mass, not a printed value. Read-outs that look alike come from different tables or passages of the source.

Key:
Type in all cases: cell-based
[1] = test system: E. coli GYR106 GyrB F513L/A468V; experiment: microbe, parasite or virus in culture; conditions: Escherichia coli
Text: (§1) E. coli HS151 (ΔtolC) has been described previously. […] E. coli BW25113 and the Keio gene deletion collection based on BW25113 [25] were obtained from Thermo Fisher Scientific (Waltham, MA) and described in [26]. The plasmid-borne FQ resistance determinant, qnrVC3 [27], was kindly provided by D. Hooper (Massachusetts General Hospital). […] MB2884 (E. coli) and CL15245 (K. pneumoniae) are clinical isolates from the Merck & Co., Inc., Kenilworth, NJ, USA, strain collection. S. aureus COL is a methicillin-resistant clinical isolate.
(§2) Compound doubling dilutions were prepared in 100% DMSO (Sigma Aldrich) and 2 μL of each dilution was transferred to a 96-well plate with lid (Thermo Scientific). Inoculum for all MIC testing was prepared using the BBL Prompt Inoculation System (Becton Dickinson, Franklin Lakes, NJ USA) as described by the manufacturer to produce a suspension of cells at approximately 1.5 x 10^8 colony forming units (CFU)/mL [34–36] and a further dilution (1:1000) was made into cation adjusted Mueller-Hinton broth (CAMH broth, Becton-Dickinson). One hundred μL of this inoculum were then transferred to each well of the 96-well plate containing diluted compound (above). Plates were covered and incubated overnight (18 hrs.) at 37°C.
(§3) After the agar solidified, 5 μL of a saturated bacterial culture, grown in CAMH broth, were dispensed on the agar surface and allowed to dry at room temperature. […] After the surface dried at room temperature the plate was incubated at 37°C overnight. […] Genomic DNA from the parent strain (E. coli HS151) and purified (restreaked) resistant isolates was obtained with a GeneJET genomic DNA purification kit according to the manufacturer’s instructions (Fisher Scientific). Assembled whole genome mutant sequences were then compared to the parent strain and polymorphisms were identified as described.

[2] = test system: E. coli GYR104 GyrB L470I; experiment: microbe, parasite or virus in culture; conditions: Escherichia coli
Text: as §1, §2, §3

[3] = test system: E. coli GYR102 GyrB E466EV; experiment: microbe, parasite or virus in culture; conditions: Escherichia coli
Text: as §1, §2, §3

[4] = test system: E. coli GYR101 GyrB F513L; experiment: microbe, parasite or virus in culture; conditions: Escherichia coli
Text: as §1, §2, §3

[5] = test system: E. coli GYR107 GyrB F513L/L422V; experiment: microbe, parasite or virus in culture; conditions: Escherichia coli
Text: as §1, §2, §3

[6] = test system: E. coli GYR105 GyrB T469K; experiment: microbe, parasite or virus in culture; conditions: Escherichia coli
Text: as §1, §2, §3

[7] = test system: E. coli GYR108 GyrB L470I/V467L; experiment: microbe, parasite or virus in culture; conditions: Escherichia coli
Text: as §1, §2, §3

[8] = test system: E. coli GYR103 GyrB L446Q; experiment: microbe, parasite or virus in culture; conditions: Escherichia coli
Text: (§4) E. coli HS151 (ΔtolC) has been described previously. Gyrase inhibitor-resistant isolates (GYR101-108) were derived by selection for spontaneous resistance to MRL-770 or MRL-423 (Fig 1) in E. coli HS151 as described below. E. coli BW25113 and the Keio gene deletion collection based on BW25113 [25] were obtained from Thermo Fisher Scientific (Waltham, MA) and described in [26]. The plasmid-borne FQ resistance determinant, qnrVC3 [27], was kindly provided by D. Hooper (Massachusetts General Hospital). MB9796 (A. baumannii) is a derivative of MB9797 (ATCC19606) lacking lipopolysaccharide. The efflux-defective P. aeruginosa strain MB5890 (CB398) is a derivative of MB5919 (PAO1). MB2884 (E. coli) and CL15245 (K. pneumoniae) are clinical isolates from the Merck & Co., Inc., Kenilworth, NJ, USA, strain collection. S. aureus COL is a methicillin-resistant clinical isolate.
as §2
After the agar solidified, 5 μL of a saturated bacterial culture, grown in CAMH broth, were dispensed on the agar surface and allowed to dry at room temperature. […] To select for resistance, a 100 mm petri dish was filled with 25 mL CAMH agar containing 8 μg/mL MRL-770 or 0.5 μg/mL MRL-423 (Fig 1). The cells in 1 mL of an overnight culture of E. coli HS151 (~10^9 CFU/mL) were concentrated by centrifugation and spread onto the surface of an MRL-770 or MRL-423 containing plate. After the surface dried at room temperature the plate was incubated at 37°C overnight. Any colonies that arose were counted and an approximate frequency of resistance was calculated after confirming resistance by restreaking on media containg compound as well as measuring MICs (see Results). Genomic DNA from the parent strain (E. coli HS151) and purified (restreaked) resistant isolates was obtained with a GeneJET genomic DNA purification kit according to the manufacturer’s instructions (Fisher Scientific). Assembled whole genome mutant sequences were then compared to the parent strain and polymorphisms were identified as described.

E. coli CIP101 GyrA D87N = experiment: microbe, parasite or virus in culture; conditions: Escherichia coli
Experimental: as §2

E. coli HS151 (ΔtolC) = experiment: microbe, parasite or virus in culture; conditions: Escherichia coli
Text: as §1, §2

[9] = test system: E. coli BW25113 ΔtolC/ΔyacG; experiment: Broth microdilution MIC, E. coli BW25113 ΔtolC/ΔyacG; conditions: Escherichia coli, BW25113
Experimental: as §2
The yacG deletion allele from the Keio collection was amplified by PCR (primers: […] and […]) and moved to BW25113 ΔtolC as described below. The E. coli strain BW25113 ΔtolC containing pKD46 [25] was used to inoculate SOB (Invitrogen)/0.2% w/v arabinose (Sigma Aldrich)/ampicillin (100 μg/mL) and grown overnight at 30°C. The overnight culture was then diluted 1/40 into 20 mL fresh SOB/0.2% w/v arabinose/ampicillin (100 μg/mL) and grown at 30°C while shaking for ~3 hrs until OD600 = 0.5. Cells were pelleted by centrifugation at 4000 rpm for 10 min, washed with 40 mL ice cold sterile, distilled H2O, then 3 x 1 mL ice cold 10% glycerol followed by centrifugation at 5000 g for 3 minutes. The pellet was resuspended in 100 μL of 10% glycerol (1/200 of starting culture). For transformation, 5 μL of gel purified PCR product was added to 50 μL cells, mixed, and immediately electroporated in a 0.2 cm gap cuvette at 2.5kV, 25 μF, 200 Ω (BioRad, Hercules, CA USA). Electroporated cells were recovered in 1 mL SOC (Invitrogen)/0.2% arabinose at 37°C for 2 hours with shaking. Cells in amounts of 50 and 950 μL were then plated on LB agar supplemented with kanamycin (25 μg/mL) and incubated overnight at 37°C. Correct gene replacements were verified by PCR.

E. coli HS151 (qnrVC) = experiment: Broth microdilution MIC, E. coli HS151 (qnrVC); conditions: Escherichia coli
Text: as §4, §2

[10] = test system: E. coli MB2884 (clinical isolate); experiment: Broth microdilution MIC, E. coli MB2884; conditions: Escherichia coli; Table 1; MB2884 E. coli; read-out: MIC
Text: as §1, §2

[11] = test system: K. pneumoniae CL15245 (clinical isolate); experiment: Broth microdilution MIC, K. pneumoniae CL15245; conditions: Klebsiella pneumoniae; Table 1; CL15245 K. pneumoniae; read-out: MIC
Text: as §1, §2

E. coli BW25113 ΔtolC = experiment: Broth microdilution MIC, E. coli BW25113 ΔtolC; conditions: Escherichia coli
Text: as §4, §2
The yacG deletion allele from the Keio collection was amplified by PCR (primers: […] and […]) and moved to BW25113 ΔtolC as described below. The E. coli strain BW25113 ΔtolC containing pKD46 [25] was used to inoculate SOB (Invitrogen)/0.2% w/v arabinose (Sigma Aldrich)/ampicillin (100 μg/mL) and grown overnight at 30°C. The overnight culture was then diluted 1/40 into 20 mL fresh SOB/0.2% w/v arabinose/ampicillin (100 μg/mL) and grown at 30°C while shaking for ~3 hrs until OD600 = 0.5. […]

[12] = test system: P. aeruginosa MB5919 (PAO1); experiment: Broth microdilution MIC, P. aeruginosa MB5919; conditions: Pseudomonas aeruginosa, Table 1, MB5919 P. aeruginosa, read-out: MIC
Text: as §1, §2

[13] = test system: P. aeruginosa(effluxΔ) MB5890; experiment: microbe, parasite or virus in culture; conditions: Pseudomonas aeruginosa
Text: as §1, §2

S. aureus (MRSA) COL = experiment: Broth microdilution MIC, S. aureus COL; conditions: Staphylococcus aureus, MRSA
Text: as §4, §2

[14] = test system: A. baumanii MB9797 (ATCC19606); experiment: Broth microdilution MIC, A. baumannii MB9797; conditions: Acinetobacter baumannii
Text: as §4, §2

[15] = test system: A. baumannii ΔlpxC MB9796; experiment: Broth microdilution MIC, A. baumannii MB9796; conditions: Acinetobacter baumannii
Text: as §4, §2

E. coli HS151 = experiment: In vitro time-dependent bactericidal study; conditions: E. coli HS151; at the 4 hour time point
Experimental: A culture of E. coli HS151 in CAMH broth was grown overnight (18 hrs.) at 37°C, diluted 1:10,000 in 200 mL of fresh CAMH broth and further incubated for 1 hour at 37°C with shaking. A time-zero sample was then removed and 20 mL portions of the remaining culture were transferred into 125 mL vented flasks to which were added MRL-1082 or control antibiotics, at the indicated concentrations. These flasks were then incubated at 37°C with shaking (70 rpm). Samples were withdrawn at the indicated times, plated on blood agar (trypticase soy agar with 5% sheep blood, Becton-Dickinson) and, following overnight growth at 37°C, colonies were counted to determine CFU/mL.

[16] = test system: DNA synthesis in E. coli JL553; experiment: Macromolecule synthesis labeling; conditions: E. coli JL553, 25 min exposure, labeled precursor incorporation
Experimental: Macromolecule synthesis profiling was conducted as described by Montgomery, et al. with minor modifications. E. coli strain JL553 (tolC, lysE) was used to measure inhibition of DNA, RNA, protein, peptidoglycan and phospholipid biosynthesis while E. coli MB5500 (lpxC [envA1], galE; Merck & Co., Inc., Kenilworth, NJ, USA, strain collection) was used to measure inhibition of lipopolysaccharide biosynthesis. Radioisotope labeled precursors were used at the following final concentrations [2-^14C]-thymidine (2.5 μCi/mL), [^14C(U)]-uridine (0.5 μCi/mL), L-[4, 5-^3H]-leucine (5 μCi/mL), [2-^3H]-glycerol (2 μCi/mL), [^3H]-diaminopimelic acid (3 μCi/mL), D-[1-^14C]-galactose (0.5 μCi/mL). Compound concentrations (3-fold serial dilutions) were chosen to place the minimum inhibitory concentration (see below) near the center of the dose range. Labeled cultures were incubated with compound for 25 min; stopped with trichloroacetic acid, filtered and incorporation was measured as described. Percent inhibition of incorporation was calculated relative to an untreated control culture for each labeled precursor and plotted with GraphPad Prism.

[17] = Table 2, HS151, GyrB mutation none

Row | Compound | MIC [1] | MIC [2] | MIC [3] | MIC [4] | MIC [5] | MIC [6] | MIC [7] | MIC [8] | MIC (E. coli CIP101 GyrA D87N) | MIC (E. coli HS151 (ΔtolC); [17]) | MIC [9] | MIC (E. coli HS151 (qnrVC)) | MIC (E. coli BW25113 ΔtolC) | MIC (E. coli HS151 (ΔtolC); Table 3, HS151) | MIC (S. aureus (MRSA) COL) | MIC [15] | other results
1 | COc1cc(Cc2cnc(N)nc2N)cc(OC)c1OC [Trimeth-oprim] | 0.0625 µg/mL (≈ 0.215 µM) | 0.0625 µg/mL (≈ 0.215 µM) | 0.0625 µg/mL (≈ 0.215 µM) | 0.0625 µg/mL (≈ 0.215 µM) | 0.0625 µg/mL (≈ 0.215 µM) | 0.0625 µg/mL (≈ 0.215 µM) | 0.125 µg/mL (≈ 0.431 µM) | 0.0625 µg/mL (≈ 0.215 µM) | 0.0625 µg/mL (≈ 0.215 µM) | 0.0625 µg/mL (≈ 0.215 µM) | – | – | – | – | – | – | –
2 | CO[C@@H]1[C@@H](OC(N)=O)[C@@H](O)[C@H](Oc2ccc3c(O)c(NC(=O)c4ccc(O)c(CC=C(C)C)c4)c(=O)oc3c2C)OC1(C)C [novobiocin] | 2 µg/mL (≈ 3.26 µM) | 2 µg/mL (≈ 3.26 µM) | 1 µg/mL (≈ 1.63 µM) | 2 µg/mL (≈ 3.26 µM) | 2 µg/mL (≈ 3.26 µM) | 2 µg/mL (≈ 3.26 µM) | 2 µg/mL (≈ 3.26 µM) | 2 µg/mL (≈ 3.26 µM) | 2 µg/mL (≈ 3.26 µM) | 2 µg/mL (≈ 3.26 µM) | 2 µg/mL (≈ 3.26 µM) | 2 µg/mL (≈ 3.26 µM) | 2 µg/mL (≈ 3.26 µM) | 2 µg/mL (≈ 3.26 µM) | 0.125 µg/mL (≈ 0.204 µM) | < 0.0625 µg/mL | MIC [10]: > 64 µg/mL; MIC [11]: > 64 µg/mL; MIC [12]: 64 µg/mL (≈ 104 µM); MIC (E. coli HS151 (ΔtolC); Fig 4 legend, E. coli HS151): 2 µg/mL (≈ 3.26 µM); MIC (E. coli HS151 (ΔtolC); Table 1, HS151 E. coli ΔtolC): 2 µg/mL (≈ 3.26 µM); MIC [13]: 64 µg/mL (≈ 104 µM); MIC ([14]; Table 1, MB9797 A. baumanii, read-out: MIC): 8 µg/mL (≈ 13.1 µM)
3 | O=C(O)c1cn(C2CC2)c2cc(N3CCNCC3)c(F)cc2c1=O [ciprofloxacin] | – | – | – | – | – | – | 0.0039 µg/mL (≈ 0.0118 µM) | 0.0039 µg/mL (≈ 0.0118 µM) | 0.0312 µg/mL (≈ 0.0943 µM) | – | 0.004 µg/mL (≈ 0.0121 µM) | 0.03 µg/mL (≈ 0.0905 µM) | 0.004 µg/mL (≈ 0.0121 µM) | 0.004 µg/mL (≈ 0.0121 µM) | > 0.125 µg/mL | 0.0625 µg/mL (≈ 0.189 µM) | MIC [14]: > 0.125 µg/mL; culture viability, below lower limit of quantitation (E. coli HS151): < 20 CFU/mL; inhibition of macromolecule synthesis [16]: Dose-dependent, selective inhibition of DNA synthesis
